From patent US8609731B2, “Substituted tetrahydronaphthalenes, process for the preparation thereof and the use thereof as medicaments” (SANOFI, priority 2007, dated 2013)

Tests used:
human MCH receptor = target: T1, human MCH receptor (Homo sapiens, UniProt Q99705); test: calcium mobilization assay (FLIPR); functional IC50 of MCH1R antagonists; format: cell-based; settings: recombinant HEK293 cell line expressing human MCH receptor; calcium flux after addition of agonist MCH
T1 construct: expressed in transfected cells
T1 sequence (Q99705 whole entry): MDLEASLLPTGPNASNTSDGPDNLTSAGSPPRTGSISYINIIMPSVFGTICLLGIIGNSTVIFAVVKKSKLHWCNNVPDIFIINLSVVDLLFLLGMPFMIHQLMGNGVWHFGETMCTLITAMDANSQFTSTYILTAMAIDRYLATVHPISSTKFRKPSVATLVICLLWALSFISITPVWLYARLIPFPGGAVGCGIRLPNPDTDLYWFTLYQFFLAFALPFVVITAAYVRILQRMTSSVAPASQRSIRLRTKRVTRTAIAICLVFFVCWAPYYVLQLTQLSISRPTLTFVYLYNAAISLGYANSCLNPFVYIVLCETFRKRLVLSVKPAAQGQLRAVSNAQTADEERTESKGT
Description: Influence on the MCH Receptor In Vitro; Determination of Functional IC50 Values of MCH1R Antagonists
Cloning of the cDNA for the human MCH receptor, preparation of a recombinant HEK293 cell line which expresses the human MCH receptor, and functional measurements with the recombinant cell line took place in analogy to the description by Audinot et al. (J. Biol. Chem. 2001, 276, 13554-13562). A difference from the reference was, however, the use of the plasmid pEAK8 from EDGE Biosystems (USA) for the construction of the expression vector. The host used for the transfection was a transformed HEK cell line named “PEAK Stable Cells” (likewise from EDGE Biosystems). Functional measurements of the cellular calcium flux after addition of agonist (MCH) in the presence of ligand of the invention took place with the aid of the FLIPR apparatus from Molecular Devices (USA), using protocols of the apparatus manufacturer. The compounds of the invention show a significant inhibition (>30%) of the signal induced by the agonist at a concentration of 100 μM, preferably at 10 μM, particularly preferably at 1 μM, very particularly preferably at 100 nM and very very particularly preferably at 10 nM.

hERG channel = target: T2, hERG channel (Homo sapiens, UniProt Q12809); test: hERG channel blockade, whole-cell patch clamp in CHO cells expressing hERG; format: cell-based; settings: CHO cells with stable hERG expression, room temperature, read-out: hERG Inh. IC50
T2 construct: expressed in transfected cells; host or cells: CHO cells (ATCC), pcDNA3 vector, G418 selection
T2 sequence (Q12809 whole entry): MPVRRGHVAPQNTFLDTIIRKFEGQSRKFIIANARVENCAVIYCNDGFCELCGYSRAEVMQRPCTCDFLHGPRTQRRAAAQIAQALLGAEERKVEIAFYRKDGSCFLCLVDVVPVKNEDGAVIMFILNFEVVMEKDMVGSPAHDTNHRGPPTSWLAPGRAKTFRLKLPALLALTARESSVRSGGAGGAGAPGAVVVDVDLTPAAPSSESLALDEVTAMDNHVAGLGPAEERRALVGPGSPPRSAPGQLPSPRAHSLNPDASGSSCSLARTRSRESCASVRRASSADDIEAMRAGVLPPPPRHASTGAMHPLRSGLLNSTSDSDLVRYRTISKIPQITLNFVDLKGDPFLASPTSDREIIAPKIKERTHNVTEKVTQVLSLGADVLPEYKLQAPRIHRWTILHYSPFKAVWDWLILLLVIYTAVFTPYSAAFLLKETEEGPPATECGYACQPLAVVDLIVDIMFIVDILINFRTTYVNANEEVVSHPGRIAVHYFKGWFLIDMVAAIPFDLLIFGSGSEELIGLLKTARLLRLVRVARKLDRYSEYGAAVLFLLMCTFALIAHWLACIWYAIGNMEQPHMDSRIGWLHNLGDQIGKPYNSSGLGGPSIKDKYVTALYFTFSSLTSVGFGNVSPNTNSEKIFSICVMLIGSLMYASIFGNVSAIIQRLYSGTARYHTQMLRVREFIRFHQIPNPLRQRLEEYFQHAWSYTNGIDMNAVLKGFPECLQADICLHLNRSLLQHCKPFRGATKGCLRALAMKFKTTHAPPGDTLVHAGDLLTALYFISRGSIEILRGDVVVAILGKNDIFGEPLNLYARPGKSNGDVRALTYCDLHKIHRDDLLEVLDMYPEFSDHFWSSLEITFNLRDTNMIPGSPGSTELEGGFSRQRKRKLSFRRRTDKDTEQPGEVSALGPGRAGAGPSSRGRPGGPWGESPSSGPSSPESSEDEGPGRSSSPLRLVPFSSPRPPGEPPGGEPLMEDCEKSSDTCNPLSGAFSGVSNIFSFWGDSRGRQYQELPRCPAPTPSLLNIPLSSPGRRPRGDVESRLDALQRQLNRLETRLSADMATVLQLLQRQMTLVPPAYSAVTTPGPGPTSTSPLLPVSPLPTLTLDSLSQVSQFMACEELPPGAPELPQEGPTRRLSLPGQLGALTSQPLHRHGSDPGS
Description: The aim of the test is to determine the concentration range in which the test compound blocks the cardiac hERG channel. Blockade of the hERG channel, which is responsible for the Ikr current in the human heart, is associated with potentially fatal arrhythmias.
For expression of the cDNA encoding the hERG channel it was cloned into the pcDNA3 vector (Invitrogen). Chinese hamster […] (CHO, American Type Culture Collection, Rockville, Md.) were transfected using lipofectamine (GIBCO/BRL, Grand Island, N.Y.) with the hERG cDNA and selected using G418 (GIBCO/BRL, Grand Island, N.Y.; 500 μg/ml). CHO cells with stable expression of the hERG channel were cultured on a HAM F-12 medium which was supplemented with 10% native bovine serum, 1× penicillin/streptomycin and 500 μg/ml G418 in an atmosphere of 95% air/5% carbon dioxide.
The cells selected for the patch clamp experiment are seeded on a plastic support 18-24 hours before the experiment. HERG channel currents are recorded at room temperature by the whole-cell variant of the patch clamp technique using an Axopatch 200B amplifier (Axon Instruments, Foster City, Calif.). The electrodes (3-6 megaohms resistance) are prepared from TW150F glass capillaries (World Precision Instruments, Sarasota, Fla.) and filled with the pipette solution (120 mM potassium aspartate, 20 mM KCl, 4 mM Na2ATP, 5 mM HEPES, 1 mM MgCl2; adjusted to pH 7.2 with KOH). The hERG channel currents are induced by a positive voltage pulse (20 mV) followed by a negative pulse (−40 mV) and are recorded for later analysis. As soon as the hERG channel current of the cell flushed with the control solution ([…], 5 mM KCl, 2.8 mM NaOAc, 1 mM MgCl2, 10 mM HEPES; 10 mM glucose, 1 mM CaCl2; adjusted to pH 7.4 with NaOH) is stable, the cell is perfused with the test compound dissolved in the above control solution (by dilution of a 10 or 100 mM DMSO solution of the test compound so that the DMSO content is no more than 0.1%). The current is followed continuously until no further changes occur. The same procedure is repeated with increasing concentrations of the test compound. The maximum amplitude of the hERG current is measured in picoAmperes (pA) for each concentration and for each cell. The maximum amplitude in pA for each concentration of the test compound is compared with that of the pure control solution in the same cell and calculated as % of the control value.
Evaluation: The test compound is tested at various concentrations in 3-5 CHO cells which express the hERG channel. The IC50 is obtained by use of nonlinear least squares regression (GraphPAD Software, San Diego, Calif.).

physchem = format: physicochemical; settings: pH 7.4, aqueous buffer, kinetic from dmso stock
Procedure: A DMSO solution of the test compound (2.5 mM; 0.5 μl) is pipetted into 200 μl of an aqueous test solution (e.g. phosphate-buffered saline, 10×, 1M, Sigma, adjusted to 10 mM, pH 7.4) in a 96-well microtiter plate, and the turbidity is measured at the resulting theoretical concentration for the test compound of 6.25 μM using a nephelometer (e.g. Nephelostar Galaxy, BMG Labtech). The concentration of the test compound in the aqueous test solution is then raised to a theoretical 12.5 μM by adding further DMSO solution (2.5 mM; 0.5 μl), and the turbidity measurement is repeated. Further additions of DMSO solutions (1 μl, 2.5 mM; 0.5 μl, 10 mM; then 9×1 μl, 10 mM resulting in theoretical concentrations of 25 μM, 50 μM, 100 μM, 150 μM, 200 μM, 250 μM, 300 μM, 350 μM, 400 μM, 450 μM and 500 μM) with turbidity measurement in between complete the measurement process.
Evaluation: The turbidity values from the nephelometer are plotted against the theoretical concentration of the test compound in the aqueous test solution. As soon as a significant turbidity is detected (e.g. 5 times above the control value of the aqueous test solution) at a theoretical concentration, the level of concentration below this is stated to be the solubility limit of the test compound in the test solution. Thus, the maximum possible measurement range emerges as values <6.25 μM, 6.25−500 μM and >500 μM.

IC50 (human MCH receptor) | SMILES | other results
170 nM | N#CC1CCN(Cc2ccc3c(c2)CC[C@H](NC(=O)c2ccc(OC[C@@H]4CCCO4)cc2)C3)CC1 [Example 3-84] | –
100 nM | O=C(N[C@H]1CCc2cc(CN3CC4CCCC4C3)ccc2C1)c1ccc(OC[C@@H]2CCCO2)cc1 (some centres unmarked) [Example 3-14] | –
120 nM | O=C(N[C@H]1CCc2cc(CN3CCCOCC3)ccc2C1)c1ccc(OC[C@@H]2CCCO2)cc1 [Example 3-77] | –
310 nM | CC(=O)N1CCN(Cc2ccc3c(c2)CC[C@H](NC(=O)c2ccc(OC[C@@H]4CCCO4)cc2)C3)CC1 [Example 3-44] | –
1850 nM | O=C1CN(Cc2ccc3c(c2)CC[C@H](NC(=O)c2ccc(OC[C@@H]4CCCO4)cc2)C3)CCN1 [Example 3-72] | –
130 nM | O=C(N[C@H]1CCc2cc(CNCCCn3ccnc3)ccc2C1)c1ccc(OC[C@@H]2CCCO2)cc1 [Example 3-32] | –
750 nM | Cc1cc(CNCc2ccc3c(c2)CC[C@H](NC(=O)c2ccc(OC[C@@H]4CCCO4)cc2)C3)no1 [Example 3-71] | –
– | O=C(N[C@H]1CCc2cc(CN3CC4CCC3C4)ccc2C1)c1ccc(OC[C@@H]2CCCO2)cc1 (some centres unmarked) [Example 3-83] | IC50 (hERG channel): > 30000 nM; solubility kinetic (physchem): > 500 µM
360 nM | COC(=O)CNCc1ccc2c(c1)CC[C@H](NC(=O)c1ccc(OC[C@@H]3CCCO3)cc1)C2 [Example 3-26] | –
300 nM | O=C(N[C@H]1CCc2cc(CNCC3OCCO3)ccc2C1)c1ccc(OC[C@@H]2CCCO2)cc1 [Example 3-61] | –
90 nM | O=C(N[C@H]1CCc2cc(CN3CCC4(CCCC4)C3)ccc2C1)c1ccc(OC[C@@H]2CCCO2)cc1 [Example 3-194] | –
240 nM | CC(C)(C)CNC(C)(C)c1ccc2c(c1)CC[C@H](NC(=O)c1ccc(OC[C@@H]3CCCO3)cc1)C2 [Example 8-1, N-{(S)-6-[1-(2,2-Dimethylpropylamino)-1-methylethyl]-1,2,3,4-tetrahydro-naphthalen-2-yl}-4-[(S)-1-(tetrahydrofuran-2-yl)methoxy]benzamide] | –
180 nM | CS(=O)(=O)CCNCc1ccc2c(c1)CC[C@H](NC(=O)c1ccc(OC[C@@H]3CCCO3)cc1)C2 [Example 3-64] | –
150 nM | CC(C)(C)CNCCc1ccc2c(c1)CC[C@H](NC(=O)c1ccc(OC[C@@H]3CCCO3)cc1)C2 [Example 3-135] | –
170 nM | O=C(N[C@H]1CCc2cc(CN3CCCCCC3)ccc2C1)c1ccc(OCC2OCCO2)cc1 [Example 9-3] | –
180 nM | O=C(N[C@H]1CCc2cc(CN3CCC(O)CC3)ccc2C1)c1ccc(OC[C@@H]2CCCO2)cc1 [Example 3-40] | –
1400 nM | COC1CCN(Cc2ccc3c(c2)CC[C@H](n2ccc4cc(OC[C@@H]5CCCO5)ccc4c2=O)C3)CC1 [Example 13, 2-[(S)-6-(4-Methoxypiperidin-1-ylmethyl)-1,2,3,4-tetrahydronaphthalen-2-yl]-6-[(S)-1-(tetrahydrofuran-2-yl)methoxy]-2H-isoquinolin-1-one] | –
190 nM | Cc1ccc(CNCc2ccc3c(c2)CC[C@H](NC(=O)c2ccc(OC[C@@H]4CCCO4)cc2)C3)o1 [Example 3-51] | –

IC50 (human MCH receptor) | SMILES | other results
310 nM | O=C(N[C@H]1CCc2cc(CN3CCCCCC3)ccc2C1)c1ccc(OCC2CCCCO2)cc1 (some centres unmarked) [Example 9-5] | –
230 nM | CC(C)CN1CCCC(c2ccc3c(c2)CC[C@H](NC(=O)c2ccc(OC[C@@H]4CCCO4)cc2)C3)C1 (some centres unmarked) [Example 8-3] | –
270 nM | O=C(N[C@H]1CCc2cc(CNCCCN3CCCC3=O)ccc2C1)c1ccc(OC[C@@H]2CCCO2)cc1 [Example 3-33] | –
300 nM | O=C(N[C@H]1CCc2cc(CN3CCCCCC3)ccc2C1)c1ccc(OC[C@@H]2CCCO2)c(F)c1 [Example 12, N-((S)-6-Azepan-1-ylmethyl-1,2,3,4-tetrahydronaphthalen-2-yl)-3-fluoro-4-[(S)-1-(tetrahydrofuran-2-yl)methoxy]benzamide] | –
330 nM | O=C(N[C@H]1CCc2cc(CN3C[C@@H]4C[C@H]3CO4)ccc2C1)c1ccc(OC[C@@H]2CCCO2)cc1 [Example 3-100] | –
120 nM | CC(C)CCN[C@H](C)c1ccc2c(c1)CC[C@H](NC(=O)c1ccc(OC[C@@H]3CCCO3)cc1)C2 [Example 8-16] | –
200 nM | COc1ccc(CNCc2ccc3c(c2)CC[C@H](NC(=O)c2ccc(OC[C@@H]4CCCO4)cc2)C3)cn1 [Example 3-103] | –
1280 nM | CC1(COc2ccc(C(=O)N[C@H]3CCc4cc(CN5CCCCCC5)ccc4C3)cc2)COC1 [Example 9-2] | –
110 nM | CC1(CNCc2ccc3c(c2)CC[C@H](NC(=O)c2ccc(OC[C@@H]4CCCO4)cc2)C3)CCCC1 [Example 3-195] | –
230 nM | O=C(N[C@H]1CCc2cc([C@@H]3CCCN(C4CCOCC4)C3)ccc2C1)c1ccc(OC[C@@H]2CCCO2)cc1 [Example 8-26] | –
180 nM | CN1CCCCC1c1ccc2c(c1)CC[C@H](NC(=O)c1ccc(OC[C@@H]3CCCO3)cc1)C2 (some centres unmarked) [Example 8-8] | –
110 nM | CC1CCN([C@H](C)c2ccc3c(c2)CC[C@H](NC(=O)c2ccc(OC[C@@H]4CCCO4)cc2)C3)CC1 [Example 10, N-{(S)-6-[(R)-1-(4-Methylpiperidin-1-yl)ethyl]-1,2,3,4-tetrahydronaphthalen-2-yl}-4-[(S)-1-(tetrahydrofuran-2-yl)methoxy]benzamide] | –
670 nM | CN(C(=O)c1ccc(OC[C@@H]2CCCO2)cc1)[C@H]1CCc2cc(CN3CCCC3)ccc2C1 [Example 2, N-Methyl-N-((S)-6-pyrrolidin-1-ylmethyl-1,2,3,4-tetrahydronaphthalen-2-yl)-4-[(S)-1-(tetrahydrofuran-2-yl)methoxy]benzamide] | –
120 nM | O=C(N[C@H]1CCc2cc(CN3CC[C@@H](F)C3)ccc2C1)c1ccc(OC[C@@H]2CCCO2)cc1 [Example 3-86] | –
3290 nM | O=C(N[C@@H]1CCc2cc(CN3CCCC3)ccc2C1)c1ccc(OC[C@@H]2CCCO2)cc1 [Example 3-2] | –
2410 nM | O=C(N[C@H]1CCc2cc(CN3CCn4cnnc4C3)ccc2C1)c1ccc(OC[C@@H]2CCCO2)cc1 [Example 3-120] | –
440 nM | O=C(N[C@H]1CCc2cc(CN3CCCCCC3)ccc2C1)c1ccc(OCC2CCOCC2)cc1 [Example 9-4] | –
340 nM | CN1CCN(Cc2ccc3c(c2)CC[C@H](NC(=O)c2ccc(OC[C@@H]4CCCO4)cc2)C3)CC1 [Example 3-37] | –

SMILES | IC50 (human MCH receptor) | other results
O=C(N[C@H]1CCc2cc(CN3C[C@H]4CC[C@H](CC4)C3)ccc2C1)c1ccc(OC[C@@H]2CCCO2)cc1 [Example 3-48] | 210 nM | –
